Experimental findings from PMC3851289 (Molecular cell, 2013) are described below.

The assay has as its target VprBP (Homo sapiens, UniProt Q9Y4B6). Kind of assay: in vitro kinase assay with recombinant VprBP and H2A. Type of assay: biochemical.

Sequence of VprBP (Q9Y4B6 whole entry): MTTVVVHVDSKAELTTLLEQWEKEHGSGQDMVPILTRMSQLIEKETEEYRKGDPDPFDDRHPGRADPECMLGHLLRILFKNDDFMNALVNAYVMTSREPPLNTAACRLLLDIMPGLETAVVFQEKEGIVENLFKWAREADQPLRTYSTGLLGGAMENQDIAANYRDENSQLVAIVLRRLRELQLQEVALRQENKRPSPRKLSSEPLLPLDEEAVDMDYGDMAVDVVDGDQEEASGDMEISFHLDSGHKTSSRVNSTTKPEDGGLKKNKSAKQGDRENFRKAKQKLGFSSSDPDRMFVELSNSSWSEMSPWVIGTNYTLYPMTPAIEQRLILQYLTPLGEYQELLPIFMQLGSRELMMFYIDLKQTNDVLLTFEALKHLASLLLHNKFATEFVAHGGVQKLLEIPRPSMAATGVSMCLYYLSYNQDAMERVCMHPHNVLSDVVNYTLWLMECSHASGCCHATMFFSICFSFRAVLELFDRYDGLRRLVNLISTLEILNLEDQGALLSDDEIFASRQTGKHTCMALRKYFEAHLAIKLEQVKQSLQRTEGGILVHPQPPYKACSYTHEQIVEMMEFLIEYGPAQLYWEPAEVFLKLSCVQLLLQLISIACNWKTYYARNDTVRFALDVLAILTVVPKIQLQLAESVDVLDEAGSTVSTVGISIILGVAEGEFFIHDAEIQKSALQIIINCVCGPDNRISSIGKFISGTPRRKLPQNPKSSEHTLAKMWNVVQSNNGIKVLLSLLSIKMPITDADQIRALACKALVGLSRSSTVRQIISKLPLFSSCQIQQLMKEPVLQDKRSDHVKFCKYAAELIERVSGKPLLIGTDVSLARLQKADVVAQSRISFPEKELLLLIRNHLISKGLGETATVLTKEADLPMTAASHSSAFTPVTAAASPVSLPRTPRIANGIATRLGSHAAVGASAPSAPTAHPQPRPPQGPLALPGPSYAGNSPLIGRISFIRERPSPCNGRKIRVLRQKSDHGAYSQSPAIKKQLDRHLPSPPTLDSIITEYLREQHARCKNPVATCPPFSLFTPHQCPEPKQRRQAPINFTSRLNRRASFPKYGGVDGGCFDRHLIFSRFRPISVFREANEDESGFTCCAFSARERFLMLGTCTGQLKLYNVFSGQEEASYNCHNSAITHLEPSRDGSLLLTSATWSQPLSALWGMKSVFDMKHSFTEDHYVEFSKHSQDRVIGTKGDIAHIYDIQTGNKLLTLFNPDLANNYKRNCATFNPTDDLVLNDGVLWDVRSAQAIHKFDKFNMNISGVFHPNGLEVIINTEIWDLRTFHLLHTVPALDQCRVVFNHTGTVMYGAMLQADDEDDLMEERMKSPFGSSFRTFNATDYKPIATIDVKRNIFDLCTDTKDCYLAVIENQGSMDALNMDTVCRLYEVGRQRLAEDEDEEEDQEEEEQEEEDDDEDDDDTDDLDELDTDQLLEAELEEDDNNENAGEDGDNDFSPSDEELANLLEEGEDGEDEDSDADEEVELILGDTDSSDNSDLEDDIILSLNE

The term IC50 denotes the point on the concentration scale where inhibition reaches its midpoint. Regarding B32B3, the IC50 amounted to 600 nM.
